Consider ten compounds from ChEMBL document CHEMBL3217648, “Glycosylated porphyrin derivatives and their photodynamic activity in cancer cells” (Medchemcomm, 2011).

In one data set the test system is HCT-116. As to the kind of experiment: Phototoxicity against human HCT116 cells at 1 uM after 24 hrs followed by halogen light irradiation by MTS assay. In kind it is functional, cell-based.
Data set [1] deals with HeLa. Description: Phototoxicity against human HeLa cells at 1 uM after 24 hrs followed by halogen light irradiation by MTS assay. In kind it is functional, cell-based.
Data set [2] can be described thus: Dark toxicity against human HCT116 cells assessed as cell viability at 1 uM after 24 hrs by MTS assay. In kind it is cell-based, HCT-116. As to conditions: read-out: Survival.
Data set [3] can be described thus: Dark toxicity against human HeLa cells assessed as cell viability at 1 uM after 24 hrs by MTS assay. In kind it is cell-based. To be noted: read-out: Survival.
For data set [4], the system named is HeLa. Description: Cellular uptake in human HeLa cells at 1 uM after 24 hrs by fluorescence microscopy. In kind it is ADME, cell-based.

Calls of active or inactive are those of the source. The rule behind the calls is not given here.

Take `CC1(C)O[C@H]2[C@@H](O1)[C@@H](C=O)O[C@@H]1OC(C)(C)O[C@@H]12`: the outcome in the data set on HCT-116 and in the data set on HeLa [1] was inactive.
Turning to `COc1ccc(-c2c3nc(c([C@H]4O[C@@H]5OC(C)(C)O[C@@H]5[C@H]5OC(C)(C)O[C@H]54)c4ccc([nH]4)c(-c4ccc(OC)cc4)c4nc(c([C@H]5O[C@@H]6OC(C)(C)O[C@@H]6[C@H]6OC(C)(C)O[C@H]65)c5ccc2[nH]5)C=C4)C=C3)cc1`, the outcome with HCT-116 and in the data set on HeLa [1] was Active. For the same compound, the viability at 24 h, 1 µM in data set [2] and in data set [3] was > 90% throughout. In addition, the Drug uptake entry in the data set on HeLa [4] is listed as “Not Active”.
With `COc1cccc(OC)c1-c1c2nc(c([C@H]3O[C@@H]4OC(C)(C)O[C@@H]4[C@H]4OC(C)(C)O[C@H]43)c3ccc([nH]3)c(-c3c(OC)cccc3OC)c3nc(c([C@H]4O[C@@H]5OC(C)(C)O[C@@H]5[C@H]5OC(C)(C)O[C@H]54)c4ccc1[nH]4)C=C3)C=C2`, the result in the data set with HCT-116 and in the data set with HeLa [1] was inactive.
In the case of `CC1(C)O[C@H]2[C@@H](O1)[C@@H](c1c3nc(c(-c4ccsc4)c4ccc([nH]4)c([C@H]4O[C@@H]5OC(C)(C)O[C@@H]5[C@H]5OC(C)(C)O[C@H]54)c4nc(c(-c5ccsc5)c5ccc1[nH]5)C=C4)C=C3)O[C@@H]1OC(C)(C)O[C@@H]12`, the outcome with HCT-116 and in the data set with HeLa [1] was Active. Also, the viability at 24 h, 1 µM in data set [2] and in data set [3] was > 90% throughout. Besides, in the data set with HeLa [4], the Drug uptake result was “Active”.
On to `CC1(C)O[C@H]2[C@@H](O1)[C@@H](c1c3nc(c(-c4c(F)c(F)c(F)c(F)c4F)c4ccc([nH]4)c([C@H]4O[C@@H]5OC(C)(C)O[C@@H]5[C@H]5OC(C)(C)O[C@H]54)c4nc(c(-c5c(F)c(F)c(F)c(F)c5F)c5ccc1[nH]5)C=C4)C=C3)O[C@@H]1OC(C)(C)O[C@@H]12`, for which the result with HCT-116 and in the data set on HeLa [1] was inactive.
`CSc1ccc(-c2c3nc(c([C@H]4O[C@@H]5OC(C)(C)O[C@@H]5[C@H]5OC(C)(C)O[C@H]54)c4ccc([nH]4)c(-c4ccc(SC)cc4)c4nc(c([C@H]5O[C@@H]6OC(C)(C)O[C@@H]6[C@H]6OC(C)(C)O[C@H]65)c5ccc2[nH]5)C=C4)C=C3)cc1`: the outcome in the data set on HCT-116 and in the data set on HeLa [1] was Active. In addition, the viability at 24 h, 1 µM in data set [2] and in data set [3] was > 90% each time. The Drug uptake entry in the data set on HeLa [4] was “Not Active”.
As to `CC1(C)O[C@H]2[C@@H](O1)[C@@H](c1c3nc(c(-c4ccc([N+](=O)[O-])cc4)c4ccc([nH]4)c([C@H]4O[C@@H]5OC(C)(C)O[C@@H]5[C@H]5OC(C)(C)O[C@H]54)c4nc(c(-c5ccc([N+](=O)[O-])cc5)c5ccc1[nH]5)C=C4)C=C3)O[C@@H]1OC(C)(C)O[C@@H]12`, the outcome with HCT-116 and in the data set with HeLa [1] was inactive.
Regarding `CC1(C)O[C@H]2[C@@H](O1)[C@@H](c1c3nc(c(-c4ccc(OC(F)(F)F)cc4)c4ccc([nH]4)c([C@H]4O[C@@H]5OC(C)(C)O[C@@H]5[C@H]5OC(C)(C)O[C@H]54)c4nc(c(-c5ccc(OC(F)(F)F)cc5)c5ccc1[nH]5)C=C4)C=C3)O[C@@H]1OC(C)(C)O[C@@H]12`, the result in the data set on HCT-116 and in the data set on HeLa [1] was inactive.
Turning to `CC1(C)O[C@H]2[C@@H](O1)[C@@H](c1c3nc(c(-c4ccccc4)c4ccc([nH]4)c([C@H]4O[C@@H]5OC(C)(C)O[C@@H]5[C@H]5OC(C)(C)O[C@H]54)c4nc(c(-c5ccccc5)c5ccc1[nH]5)C=C4)C=C3)O[C@@H]1OC(C)(C)O[C@@H]12`, the result in the data set on HCT-116 and in the data set on HeLa [1] was inactive.
Take `CC1(C)O[C@H]2[C@@H](O1)[C@@H](c1c3nc(c(-c4ccc(Cl)cc4)c4ccc([nH]4)c([C@H]4O[C@@H]5OC(C)(C)O[C@@H]5[C@H]5OC(C)(C)O[C@H]54)c4nc(c(-c5ccc(Cl)cc5)c5ccc1[nH]5)C=C4)C=C3)O[C@@H]1OC(C)(C)O[C@@H]12`: the result in the data set on HCT-116 and with HeLa [1] was inactive.
